Assay results: patent publication US20240082273A1, “NEUROKININ INHIBITORS SUCH AS APREPITANT FOR TREATING NON SMALL CELL LUNG CARCINOMA OR BREAST CANCER WITHOUT MUTATIONS” (priority 2020, published 2024)

Assays:
[1] = tested on: lung cancer cell lines with molecular profile EGFR−/ALK+/ROS1− (H322, H332); experiment: MTT proliferation, NSCLC cell lines with EGFR−/ALK+/ROS1− profile; format: cell-based, human; settings: 48 hours
Source text: EGFR, ALK and ROS1 are key molecular factors that may be used to determine pathological classification, prognosis, therapeutics and behaviour in patients with lung cancer. EGFR, ALK and ROS1 are biomarkers routinely analysed in the clinical practice of the management of patients with NSCLC. NSCLC with molecular profile EGFR-/ALK-/ROS1- presents a better response to treatment with the NK1 inhibitor aprepitant, compared to lung cancer with different profiles (in particular, EGFR+/ALK-/ROS1- and EGFR-/ALK+/ROS1-, in which EGFR and ALK respectively contain mutations relative to their wild type gene). Commercial lines of lung cancer were used as shown in Table 2 together with their molecular profile. The molecular profile of the cancer cell lines was determined by sequencing and can be consulted in the Cancer Cell Line Encyclopaedia database of public access available at the url: https://portals.broadinstitute.org/ccle All cells were cultured in wells under vendor-recommended conditions and exposed to different concentrations of aprepitant for 48 hours. In each case a group of wells of cells were used to which no treatment was applied and which were considered as controls. At 48 hours the number of cells was measured. Eight cell lines of human were used for the study of NK1 inhibitors (Table 3). All of them were maintained in culture in their respective culture media (Gibco,Thermo Fisher Scientific) supplemented with 10% foetal bovine serum (FBS) (Gibco, Thermo Fisher Scientific), 2 mM L-Glutamine (Gln) (Sigma-Aldrich, Merk), and […] and […] Gibco, Thermo Fisher Scientific) in a humidified incubator at 37° C. and 5% CO2. Cell culture media used are Dulbecco's Modified Eagle Medium (DMEM), and RPMI Medium 1640 (RPMI-1640). To measure cell viability, the cytotoxicity of drugs in culture was evaluated using the 3-(4,5-Dimethyl-2-thiazolyl)-2,5-diphenyl-2H-tetrazolium bromide (MTT) reduction assay. This assay assesses cell viability through the indirect measurement of the activity of reductases that convert yellow soluble MTT into purple insoluble formazan salts. As MTT can only be reduced when these enzymes are active, the reaction is used as an indicator of the cell metabolic competence and, therefore, of viability. A variable number of cells (depending on the cell line) were seeded in 96 multi-well plates and grown during 24 hours. The following day, the culture medium was aspirated and fresh culture medium with the drug dissolved was added to the wells. After 24 hours or 48 hours cell viability was measurement by adding 10 μl of a 5 mg/ml MTT solution (M5655; Sigma-Aldrich) and 100 μl of HCl 0.01M-SDS 10% solution 4 hours later. After 24 hours, the absorbance was measured at 595 nm, using a multi-well plate reader (iMark, Bio-rad). Each condition was tested 5 times, obtaining 5 values of absorbance. All sample measurements were corrected using the blank (culture medium without cells) mean absorbance value, and normalized to positive control to determinate relative cell viability for each condition at 24 and 48 hours.

[2] = tested on: breast cancer cell lines ER−/PR−/HER2− (MDAMB231, MDAMB435, MDAMB468); experiment: MTT proliferation, breast cancer cell lines ER−/PR−/HER2−; format: cell-based, human; settings: for Mean proliferation: 48 hours
Description: (§1) All cells were cultured in wells under vendor-recommended conditions and exposed to different concentrations of aprepitant for 48 hours. In each case a group of wells of cells were used to which no treatment was applied and which were considered as controls. At 48 hours the number of cells was measured. To measure cell viability, the cytotoxicity of drugs in culture was evaluated using the 3-(4,5-Dimethyl-2-thiazolyl)-2,5-diphenyl-2H-tetrazolium bromide (MTT) reduction assay. This assay assesses cell viability through the indirect measurement of the activity of reductases that convert yellow soluble MTT into purple insoluble formazan salts. As MTT can only be reduced when these enzymes are active, the reaction is used as an indicator of the cell metabolic competence and, therefore, of viability. A variable number of cells (depending on the cell line) were seeded in 96 multi-well plates and grown during 24 hours. The following day, the culture medium was aspirated and fresh culture medium with the drug dissolved was added to the wells. After 24 hours or 48 hours cell viability was measurement by adding 10 μl of a 5 mg/ml MTT solution (M5655; Sigma-Aldrich) and 100 μl of HCl 0.01M-SDS 10% solution 4 hours later. After 24 hours, the absorbance was measured at 595 nm, using a multi-well plate reader (iMark, Bio-rad). Each condition was tested 5 times, obtaining 5 values of absorbance. All sample measurements were corrected using the blank (culture medium without cells) mean absorbance value, and normalized to positive control to determinate relative cell viability for each condition at 24 and 48 hours.

[3] = tested on: breast cancer cell line ER+/PR+/HER2+ (BT474); experiment: MTT proliferation, breast cancer cell line ER+/PR+/HER2+; format: cell-based, human; settings: 48 hours
Description: as §1

[4] = tested on: breast cancer cell line ER−/PR−/HER2+ (SkBr3); experiment: MTT proliferation, breast cancer cell line ER−/PR−/HER2+; format: cell-based, human; settings: 48 hours
Description: as §1

[5] = daily dosing from 625 to 875 mg; cited from earlier work

C[C@@H](O[C@H]1OCCN(Cc2nc(=O)[nH][nH]2)[C@H]1c1ccc(F)cc1)c1cc(C(F)(F)F)cc(C(F)(F)F)c1 [Aprepitant]
Mean proliferation ([1]; aprepitant 1 μM): 102.88
Mean proliferation ([1]; aprepitant 3 μM): 92.41
Mean proliferation ([1]; aprepitant 5 μM): 105.07
Mean proliferation ([1]; aprepitant 10 μM): 108.06
Mean proliferation ([1]; aprepitant 20 μM): 99
Mean proliferation ([1]; aprepitant 30 μM): 88.22
Mean proliferation ([1]; aprepitant 40 μM): 68.94
Mean proliferation ([1]; aprepitant 50 μM): 37.3
Mean proliferation ([1]; aprepitant 60 μM): 11.67
inhibition at 20 µM ([2]; Homo sapiens, concentration of 20 μM (FIG. 5), read-out: growth inhibition): ~60%
Mean proliferation ([2]; aprepitant 0.3 μM): 98.63
Mean proliferation ([2]; aprepitant 1 μM): 97.94
Mean proliferation ([2]; aprepitant 3 μM): 98.98
Mean proliferation ([2]; aprepitant 10 μM): 74.02
Mean proliferation ([2]; aprepitant 20 μM): 42.89
Mean proliferation ([2]; aprepitant 30 μM): 24.11
Mean proliferation ([2]; aprepitant 40 μM): 7.53
Mean proliferation ([2]; aprepitant 50 μM): 1.89
Mean proliferation ([2]; aprepitant 60 μM): 6.77
triple negative breast carcinoma proliferation in culture relative to ER+/PR+/HER2+, ER−/PR−/HER2+ and ER+/PR+/HER2− ([2]; dose dependent): reduces
Mean proliferation ([3]; aprepitant 0.3 μM): 100.88
Mean proliferation ([3]; aprepitant 1 μM): 101.83
Mean proliferation ([3]; aprepitant 3 μM): 91.36
Mean proliferation ([3]; aprepitant 10 μM): 85.45
Mean proliferation ([3]; aprepitant 20 μM): 80.23
Mean proliferation ([3]; aprepitant 30 μM): 57.51
Mean proliferation ([3]; aprepitant 40 μM): 43.65
Mean proliferation ([3]; aprepitant 50 μM): 23.8
Mean proliferation ([3]; aprepitant 60 μM): 9.29
Mean proliferation ([4]; aprepitant 0.3 μM): 99.8
Mean proliferation ([4]; aprepitant 1 μM): 100.23
Mean proliferation ([4]; aprepitant 3 μM): 95.65
Mean proliferation ([4]; aprepitant 10 μM): 81.8
Mean proliferation ([4]; aprepitant 20 μM): 65.97
Mean proliferation ([4]; aprepitant 30 μM): 45.14
Mean proliferation ([4]; aprepitant 40 μM): 32.62
Mean proliferation ([4]; aprepitant 50 μM): 23.78
Mean proliferation ([4]; aprepitant 60 μM): 12.87
plasma trough level [5]: 2.65 µg/mL
plasma trough level (equivalent) [5]: 5 µM
